Assay results published in US4350705A, “Cyclohexane derivatives, process for preparation thereof and medicines containing these cyclohexane derivatives” (Eisai Co., Ltd., priority 1979, dated 1982).
Like-named read-outs stand apart in the source and are kept apart here.

Key:
[1] = test system: spontaneous hypertensive rats (SHR); test: Hypotensive Action: systolic pressure from tail artery of SHR after oral administration 10 mg/Kg once a day for 2 days; format: in vivo, rat; conditions: oral 10 mg/Kg, * = significant vs control, P = 0.01
Description: A test compound suspended in a gum arabic solution was orally administered once a day, at a dose of 10 mg/Kg (body weight), for 2 days, to groups of spontaneous hypertensive rats (hereinafter referred to as "SHR") (about 30 weeks old; systolic pressure=about 230 mm Hg), each group consisting of 6 rats.
The systolic pressure was measured from the tail artery of SHR under no anesthesia before the administration and 6 hours after the time of administration by using a continuous tonometer (Shimazu Tonometer Model SCS-301 manufactured by Shimazu Seisakusho K.K.). An aqueous solution of gum arabic alone was administered to the rats of the control group.

[2] = test system: spontaneous hypertensive rats (SHR); test: as above; format: in vivo, rat; conditions: oral 10 mg/Kg, * = significant vs control, P = 0.01; remark: listed apart in the source
[3] = Acute Toxicity: LD50 in rats of the SD series, 14 days observation; format: in vivo; conditions: rat, in vivo, male
From the text: (§1) Groups of rats of the SD series (body weight=160-280 g; about 8 weeks old), each group consisting of 5 rats, were used. After administration of the test compound, the death or survival was examined during a period of 14 days to determine the LD50 value.

rats of the SD series = test: as above; format: in vivo; conditions: female
From the text: as §1

[4] = ip, abdominal administration, read-out: LD50, Abdominal Administration, male
[5] = oral, read-out: LD50, Oral Administration, male

Row | Compound | Blood Pressure (mm Hg) on First Day, after 6 hours [1] [mm Hg] | Blood Pressure (mm Hg) on Second Day, after 6 hours [1] [mm Hg] | Blood Pressure (mm Hg) on Second Day, before administration [1] [mm Hg] | Blood Pressure (mm Hg) on Second Day, after 24 hours [2] [mm Hg] | LD50 at 336 h [3, 4] [mg/kg] | LD50 at 336 h [3, 5] [mg/kg] | LD50, Abdominal Administration, female (rats of the SD series) | LD50, Oral Administration, female (rats of the SD series)
1 | CC(=O)Oc1ccc(CCC(=O)C2C(=O)CC(c3ccccc3)CC2=O)cc1OC(C)=O (stereo not drawn) | 195 ± 10 | 195 ± 10 | 222± 5 | 212 ± 5 | – | – | – | –
2 | COc1ccc(CCC(=O)C2C(=O)CC(c3ccccc3)CC2=O)cc1 (stereo not drawn) | 209 ± 5 | 210 ± 5 | 213 ± 6 | 212 ± 6 | – | – | – | –
3 | O=C(CCc1ccc(O)c(O)c1)C1C(=O)CC(c2ccccc2)CC1=O (stereo not drawn) | 204 ± 5 | 200 ± 5 | 209 ± 5 | 205 ± 5 | – | – | – | –
4 | O=C(Cc1ccccc1)C1C(=O)CC(c2ccccc2)CC1=O (stereo not drawn) [drawing 35] | – | – | – | – | > 500 | > 4000 | > 500 | > 4000
5 | Cc1ccc(C2CC(=O)C(C(=O)CCc3ccc4c(c3)OCO4)C(=O)C2)cc1 (stereo not drawn) [drawing 34] | – | – | – | – | > 500 | > 4000 | > 500 | > 4000
6 | O=C(Cc1ccc(Cl)cc1)C1C(=O)CC(c2ccccc2)CC1=O (stereo not drawn) | 215 ± 1 | 215 ± 2 | 217 ± 4 | 222 ± 4 | – | – | – | –
7 | CC1(C)Oc2ccc(CCC(=O)C3C(=O)CC(c4ccccc4)CC3=O)cc2O1 (stereo not drawn) | 207 ± 3 | 190 ± 5 | 202 ± 7 | 192 ± 7 | – | – | – | –
8 | O=C(Cc1ccccc1)C1C(=O)CC(c2ccccc2)CC1=O (stereo not drawn) [drawing 31] | 183 ± 3 | 183 ± 3 | 203 ± 3 | 193 ± 7 | – | – | – | –
9 | O=C(CCc1ccc2c(c1)OC(c1ccccc1)(c1ccccc1)O2)C1C(=O)CC(c2ccccc2)CC1=O (stereo not drawn) | 202 ± 5 | 192 ± 5 | 210 ± 10 | 208 ± 5 | – | – | – | –
10 | COc1ccc(C2CC(=O)C(C(=O)CCc3ccc(O)c(O)c3)C(=O)C2)cc1 (stereo not drawn) | 212 ± 3 | 220 ± 1 | 225 ± 1 | 228 ± 2 | – | – | – | –
11 | COc1ccccc1C1CC(=O)C(C(=O)CCc2ccc3c(c2)OCO3)C(=O)C1 (stereo not drawn) | 210 ± 5 | 205 ± 5 | 220 ± 6 | 220 ± 6 | – | – | – | –
12 | O=C(CCc1ccc2c(c1)OCO2)C1C(=O)CC(c2ccccc2)CC1=O (stereo not drawn) [drawing 20] | 205 ± 7 | 204 ± 6 | 218 ± 7 | 207 ± 7 | – | – | – | –
13 | Cc1ccc(C2CC(=O)C(C(=O)CCc3ccc4c(c3)OCO4)C(=O)C2)cc1 (stereo not drawn) [drawing 21] | 198 ± 5 | 188 ± 5 | 200 ± 10 | 192 ± 5 | – | – | – | –
14 | O=C(CCc1ccc2c(c1)OCO2)C1C(=O)CC(c2ccccc2)CC1=O (stereo not drawn) [drawing 33] | – | – | – | – | > 500 | > 4000 | > 500 | > 4000
15 | O=C(CCc1ccccc1Cl)C1C(=O)CC(c2ccccc2)CC1=O (stereo not drawn) | 200 ± 3 | 213 ± 4 | 208 ± 9 | 193 ± 1 | – | – | – | –
